This is an account of results in patent publication US20210220376A1, “ADDICTION TREATMENT OF AN ALCOHOL-CONSUMING PATIENT POPULATION” (Amygdala Neurosciences, Inc., priority 2018, published 2021).

One series deals with T1, hMAO-A (Homo sapiens, UniProt P21397).
T1 sequence (P21397 1-527): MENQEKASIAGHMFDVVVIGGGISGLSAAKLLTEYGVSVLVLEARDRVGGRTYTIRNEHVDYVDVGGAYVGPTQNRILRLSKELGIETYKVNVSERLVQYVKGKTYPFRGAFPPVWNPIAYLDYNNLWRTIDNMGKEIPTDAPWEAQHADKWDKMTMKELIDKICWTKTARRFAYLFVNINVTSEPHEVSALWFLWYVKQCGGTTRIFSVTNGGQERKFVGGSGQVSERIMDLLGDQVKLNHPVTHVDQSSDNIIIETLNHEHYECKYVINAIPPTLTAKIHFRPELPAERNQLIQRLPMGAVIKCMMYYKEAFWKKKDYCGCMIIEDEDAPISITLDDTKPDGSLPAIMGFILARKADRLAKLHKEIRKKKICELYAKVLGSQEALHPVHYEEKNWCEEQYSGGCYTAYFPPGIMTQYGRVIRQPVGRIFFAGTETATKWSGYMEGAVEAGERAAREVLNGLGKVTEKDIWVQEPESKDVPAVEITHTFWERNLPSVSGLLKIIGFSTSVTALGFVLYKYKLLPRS
As to conditions: read-out: IC50 hMAO-A; cited from earlier work.

For another series, the target named is T2, hMAO-B (Homo sapiens, UniProt P27338).
T2 sequence (P27338 1-520): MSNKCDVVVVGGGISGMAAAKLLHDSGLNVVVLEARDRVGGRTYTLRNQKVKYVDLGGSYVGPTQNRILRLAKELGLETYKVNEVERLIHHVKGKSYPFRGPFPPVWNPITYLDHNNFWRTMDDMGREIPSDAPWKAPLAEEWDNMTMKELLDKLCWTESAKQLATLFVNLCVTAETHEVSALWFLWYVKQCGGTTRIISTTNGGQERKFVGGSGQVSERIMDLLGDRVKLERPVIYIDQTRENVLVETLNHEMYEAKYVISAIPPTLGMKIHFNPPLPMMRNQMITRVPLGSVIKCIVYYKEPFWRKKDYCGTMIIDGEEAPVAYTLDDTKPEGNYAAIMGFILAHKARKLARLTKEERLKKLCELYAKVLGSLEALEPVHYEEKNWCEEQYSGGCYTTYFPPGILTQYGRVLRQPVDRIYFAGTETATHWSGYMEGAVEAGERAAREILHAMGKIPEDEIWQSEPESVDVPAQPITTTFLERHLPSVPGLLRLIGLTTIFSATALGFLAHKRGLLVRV
As to conditions: read-out: IC50 hMAO-B; cited from earlier work.

Series [1] has as its system alcohol-consuming patient population. Conditions: 500 mg/day DSF; cited from earlier work.
A short description of series [2]: Phase 1 study of compound (2) with ethanol: pharmacokinetics of compound (1) and breath alcohol. The text has this: Plasma concentrations of compound (1) and BrAC were summarized and listed by treatment, subject and timepoint. Pharmacokinetic parameters derived for compound (1) were also summarized and listed by treatment and subject. Pharmacokinetic parameters were estimated using a non-compartmental approach with a log-linear terminal phase assumption. The trapezoidal rule was used to estimate the area under the curve (linear trapezoidal linear interpolation) and the terminal phase will be estimated by maximizing the coefficient of determination estimated from the log-linear regression model. However, AUC0-∞, AUClast/∞, λz and t1/2 parameters were to be estimated for individual concentration-time profiles only when the terminal log-linear phase could be reliably characterized.
Proportionality analysis was done using a power model. The power model was defined as: […]
A linear model with ln-transformed dose as a continuous effect was fitted. A point estimate and a 90% CI was derived for the slope (β). The parameter could be considered to be dose proportional if the 90% confidence interval of the slope β was within [1+ln(0.8)/ln(r), 1+ln(1.25)/ln(r)], where r=the highest dose studied/the lowest dose (Smith et al., “Confidence interval criteria for assessment of dose proportionality.” Pharm Res. 17 (10):1278-83 (2000)).

With `O=C(NCc1ccc(-c2cc[nH]c(=O)c2)cc1)c1c(F)cccc1F` [(11), 2,6-difluoro-N-(4-(2-oxo-1,2-dihydropyridin-4-yl)benzyl)benzamide], the IC50 at hMAO-A and at hMAO-B was more than 130 µM in each case.
Regarding `O=C(NCc1ccc(-c2cc[nH]c(=O)c2)cc1)c1c(F)cccc1Cl` [(12), 2-chloro-6-fluoro-N-(4-(2-oxo-1,2-dihydropyridin-4-yl)benzyl)benzamide], the IC50 on hMAO-A and at hMAO-B was more than 130 µM each time.
For the compound `Cn1ccc(-c2ccc(CNC(=O)c3c(Cl)cccc3Cl)cc2)cc1=O` [(10), 2,6-dichloro-N-(4-(1-methyl-2-oxo-1,2-dihydropyridin-4-yl)benzyl)benzamide], the IC50 on hMAO-A and on hMAO-B was more than 130 µM throughout.
For `O=C(NCc1ccc(-c2cc[nH]c(=O)c2)cc1)c1cccc(F)c1Cl` [(4), 2-chloro-3-fluoro-N-(4-(2-oxo-1,2-dihydropyridin-4-yl)benzyl)benzamide], the IC50 at hMAO-A and at hMAO-B was more than 130 µM in each case.
Take `CCN(CC)C(=S)SSC(=S)N(CC)CC` [DSF, Disulfuram]: the “outcome of safety study” value in series [1] is given as “halted prematurely due to severity of DER”.
For `O=C(NCc1ccc(-c2cc[nH]c(=O)c2)cc1)c1c(F)ccc(F)c1Cl` [(8), 2-chloro-3,6-difluoro-N-(4-(2-oxo-1,2-dihydropyridin-4-yl)benzyl)benzamide], the IC50 at hMAO-A and on hMAO-B was more than 130 µM each time.
Consider `Cc1cc(CNC(=O)c2c(Cl)cccc2Cl)ccc1-c1cc[nH]c(=O)c1` [(9), 2,6-dichloro-N-(3-methyl-4-(2-oxo-1,2-dihydropyridin-4-yl)benzyl)benzamide], for which the IC50 on hMAO-A and at hMAO-B was more than 130 µM in each case.
Regarding `COCCOc1cc(Cl)c(C(=O)NCc2ccc(-c3cc[nH]c(=O)c3)cc2)c(Cl)c1` [(3), 2,6-dichloro-4-(2-methoxyethoxy)-N-(4-(2-oxo-1,2-dihydropyridin-4-yl)benzyl)benzamide], the IC50 on hMAO-A and at hMAO-B was more than 130 µM each time.
As for `Cc1cc(-c2ccc(CNC(=O)c3c(Cl)cccc3Cl)cc2)cc(=O)[nH]1` [(7), 2,6-dichloro-N-[4-(6-methyl-2-oxo-1,2-dihydro-pyridin-4-yl)-benzyl]-benzamide], the IC50 at hMAO-A and at hMAO-B was more than 130 µM in each case.
For `Cc1cccc(C)c1C(=O)NCc1ccc(-c2cc[nH]c(=O)c2)cc1` [(6), 2,6-dimethyl-N-(4-(2-oxo-1,2-dihydropyridin-4-yl)benzyl)benzamide], the IC50 on hMAO-A and at hMAO-B was more than 130 µM each time.
As to `O=C(NCc1ccc(-c2cc[nH]c(=O)c2)cc1)c1c(Cl)cccc1Cl` [Compound (1), 2,6-dichloro-N-[4-(2-oxo-1,2-dihydro-pyridin-4-yl)-benzyl]-benzamide], the “dose proportionality of peak and overall exposure (power model)” value in series [2] (25 mg to 600 mg dose range) was “did not increase in a compound (2) dose-proportional manner”. Moreover, in series [2] (following a moderate-fat meal), the “peak (Cmax) and overall (AUC) exposure to compound (1)” value is reported as “increased with increasing dose of compound (2)”. Further, the Tmax in series [2] (male, human, plasma, po) fell in the range of 3.5 to 5 h. Further, the half-life in series [2] (male, human, plasma, po) fell in the range of 17 to 27 h. The IC50 on hMAO-A and on hMAO-B was more than 130 µM in each case.
As to `O=C(NCc1ccc(-c2cc(=O)[nH]cc2F)cc1)c1c(Cl)cccc1Cl` [(14), 2,6-dichloro-N-(4-(5-fluoro-2-oxo-1,2-dihydropyridin-4-yl)benzyl)benzamide], the IC50 at hMAO-A and at hMAO-B was more than 130 µM each time.
Take `O=C(NCc1ccc(-c2cc[nH]c(=O)c2)cc1F)c1c(Cl)cccc1Cl` [(13), 2,6-dichloro-N-(2-fluoro-4-(2-oxo-1,2-dihydropyridin-4-yl)benzyl)benzamide]: the IC50 on hMAO-A and on hMAO-B was more than 130 µM throughout.
On to `Cc1cccc(Cl)c1C(=O)NCc1ccc(-c2cc[nH]c(=O)c2)cc1` [(5), 2-chloro-6-methyl-N-(4-(2-oxo-1,2-dihydropyridin-4-yl)benzyl)benzamide], for which the IC50 on hMAO-A and on hMAO-B was more than 130 µM each time.
